In PubChem BioAssay (NCI):
Where “and” joins values, the source holds several entries; their conditions need not be identical. Equal values may be shown once.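 Grown in 96-well plates, cells were treated for 48 hours with each compound at five concentrations. Insufficient inhibition: endpoint recorded as highest concentration tested. At the GI50, growth is halved. Definition used: TGI = concentration required for complete inhibition of growth.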

How the values were obtained:
Assay in all cases: NCI tumour cell line growth inhibition, 48 h
OVCAR-8 ovarian = system: OVCAR-8 ovarian
SF-295 CNS = system: SF-295 CNS
A549 NSCLC = system: A549 NSCLC
SN12C renal = system: SN12C renal
KM20L2 colon = system: KM20L2 colon
KM12 colon = system: KM12 colon
EKVX NSCLC = system: EKVX NSCLC
LXFL 529 NSCLC = system: LXFL 529 NSCLC
HOP-62 NSCLC = system: HOP-62 NSCLC
HL-60(TB) leukemia = system: HL-60(TB) leukemia
DMS 114 small cell lung = system: DMS 114 small cell lung
M19-MEL melanoma = system: M19-MEL melanoma
SF-539 CNS = system: SF-539 CNS
MALME-3M melanoma = system: MALME-3M melanoma
RPMI-8226 leukemia = system: RPMI-8226 leukemia
SK-MEL-28 melanoma = system: SK-MEL-28 melanoma
HCC-2998 colon = system: HCC-2998 colon
IGROV1 ovarian = system: IGROV1 ovarian
UO-31 renal = system: UO-31 renal
COLO 205 colon = system: COLO 205 colon
SNB-19 CNS = system: SNB-19 CNS
SK-MEL-2 melanoma = system: SK-MEL-2 melanoma
DLD-1 colon = system: DLD-1 colon
K-562 leukemia = system: K-562 leukemia
NCI-H460 lung = system: NCI-H460 lung
UACC-257 melanoma = system: UACC-257 melanoma
SNB-75 CNS = system: SNB-75 CNS
SNB-78 CNS = system: SNB-78 CNS
LOX IMVI melanoma = system: LOX IMVI melanoma
786-0 renal = system: 786-0 renal
TK-10 renal = system: TK-10 renal
U251 CNS = system: U251 CNS
HCT-15 colon = system: HCT-15 colon
OVCAR-3 ovarian = system: OVCAR-3 ovarian
HT29 colon = system: HT29 colon
A498 renal = system: A498 renal
HOP-18 NSCLC = system: HOP-18 NSCLC
OVCAR-5 ovarian = system: OVCAR-5 ovarian
SF-268 CNS = system: SF-268 CNS
NCI-H23 lung = system: NCI-H23 lung
MOLT-4 leukemia = system: MOLT-4 leukemia
RXF 393 renal = system: RXF 393 renal
NCI-H226 lung = system: NCI-H226 lung
ACHN renal = system: ACHN renal
RXF-631 renal = system: RXF-631 renal
HOP-92 NSCLC = system: HOP-92 NSCLC
HCT-116 colon = system: HCT-116 colon
SW-620 colon = system: SW-620 colon
SR leukemia = system: SR leukemia
DMS 273 small cell lung = system: DMS 273 small cell lung
CAKI-1 renal = system: CAKI-1 renal
OVCAR-4 ovarian = system: OVCAR-4 ovarian
M14 melanoma = system: M14 melanoma
SK-OV-3 ovarian = system: SK-OV-3 ovarian
XF 498 CNS = system: XF 498 CNS
NCI-H522 lung = system: NCI-H522 lung
CCRF-CEM leukemia = system: CCRF-CEM leukemia
UACC-62 melanoma = system: UACC-62 melanoma
SK-MEL-5 melanoma = system: SK-MEL-5 melanoma

## NCCn1cnc2nc(NC(=O)c3ccccc3)[nH]c(=O)c21
OVCAR-8 ovarian
  TGI: > 100 µM
SF-295 CNS
  TGI: > 100 µM
A549 NSCLC
  TGI: > 100 µM
SN12C renal
  TGI: > 100 µM
KM20L2 colon
  TGI: > 100 µM
KM12 colon
  TGI: > 100 µM
EKVX NSCLC
  TGI: > 100 µM
LXFL 529 NSCLC
  TGI: > 100 µM
HOP-62 NSCLC
  TGI: > 100 µM
HL-60(TB) leukemia
  TGI: > 100 µM
DMS 114 small cell lung
  TGI: > 100 µM
M19-MEL melanoma
  TGI: > 100 µM
SF-539 CNS
  TGI: > 100 µM
MALME-3M melanoma
  TGI: > 100 µM
RPMI-8226 leukemia
  TGI: > 100 µM
SK-MEL-28 melanoma
  TGI: > 100 µM
HCC-2998 colon
  TGI: > 100 µM
IGROV1 ovarian
  TGI: > 100 µM
UO-31 renal
  TGI: > 100 µM
COLO 205 colon
  TGI: > 100 µM
SNB-19 CNS
  TGI: > 100 µM
SK-MEL-2 melanoma
  TGI: > 100 µM
DLD-1 colon
  TGI: > 100 µM
K-562 leukemia
  TGI: > 100 µM
NCI-H460 lung
  TGI: > 100 µM
UACC-257 melanoma
  TGI: > 100 µM
SNB-75 CNS
  TGI: > 100 µM
SNB-78 CNS
  TGI: > 100 µM
LOX IMVI melanoma
  TGI: > 100 µM
786-0 renal
  TGI: > 100 µM
TK-10 renal
  TGI: > 100 µM
U251 CNS
  TGI: > 100 µM
HCT-15 colon
  TGI: > 100 µM
OVCAR-3 ovarian
  TGI: > 100 µM
HT29 colon
  TGI: > 100 µM
A498 renal
  TGI: > 100 µM
HOP-18 NSCLC
  TGI: > 100 µM
OVCAR-5 ovarian
  TGI: > 100 µM
SF-268 CNS
  TGI: > 100 µM
NCI-H23 lung
  TGI: > 100 µM
MOLT-4 leukemia
  TGI: > 100 µM
RXF 393 renal
  TGI: > 100 µM
NCI-H226 lung
  TGI: > 100 µM
ACHN renal
  TGI: > 100 µM
RXF-631 renal
  TGI: > 100 µM
HOP-92 NSCLC
  TGI: > 100 µM
HCT-116 colon
  TGI: > 100 µM
SW-620 colon
  TGI: > 100 µM
SR leukemia
  TGI: > 100 µM

## Cc1cccc(Cl)c1NC(=O)c1cccc([N+](=O)[O-])c1O
OVCAR-8 ovarian
  TGI: > 100 µM
SF-295 CNS
  TGI: > 100 µM
A549 NSCLC
  TGI: > 100 µM
SN12C renal
  TGI: > 100 µM
KM20L2 colon
  TGI: > 100 µM
KM12 colon
  TGI: 66 µM
EKVX NSCLC
  TGI: > 100 µM
LXFL 529 NSCLC
  TGI: > 100 µM
HOP-62 NSCLC
  TGI: 54.4 µM
DMS 114 small cell lung
  TGI: 83.1 µM
DMS 273 small cell lung
  TGI: > 100 µM
SF-539 CNS
  TGI: 85.2 µM
MALME-3M melanoma
  TGI: 84.7 µM
RPMI-8226 leukemia
  TGI: 64.6 µM
SK-MEL-28 melanoma
  TGI: > 100 µM
HCC-2998 colon
  TGI: > 100 µM
IGROV1 ovarian
  TGI: > 100 µM
UO-31 renal
  TGI: 59.5 µM
COLO 205 colon
  TGI: > 100 µM
SNB-19 CNS
  TGI: > 100 µM
DLD-1 colon
  TGI: > 100 µM
K-562 leukemia
  TGI: > 100 µM
CAKI-1 renal
  TGI: > 100 µM
NCI-H460 lung
  TGI: > 100 µM
UACC-257 melanoma
  TGI: > 100 µM
SNB-75 CNS
  TGI: > 100 µM
OVCAR-4 ovarian
  TGI: > 100 µM
SNB-78 CNS
  TGI: > 100 µM
LOX IMVI melanoma
  TGI: 82.9 µM
M14 melanoma
  TGI: > 100 µM
SK-OV-3 ovarian
  TGI: > 100 µM
XF 498 CNS
  TGI: > 100 µM
786-0 renal
  TGI: > 100 µM
U251 CNS
  TGI: > 100 µM
NCI-H522 lung
  TGI: 50.4 µM
HCT-15 colon
  TGI: > 100 µM
OVCAR-3 ovarian
  TGI: 76.4 µM
HT29 colon
  TGI: > 100 µM
A498 renal
  TGI: > 100 µM
HOP-18 NSCLC
  TGI: > 100 µM
OVCAR-5 ovarian
  TGI: > 100 µM
SF-268 CNS
  TGI: 96.5 µM
NCI-H23 lung
  TGI: 85.1 µM
MOLT-4 leukemia
  TGI: > 100 µM
RXF 393 renal
  TGI: 50.7 µM
NCI-H226 lung
  TGI: 95.9 µM
ACHN renal
  TGI: > 100 µM
CCRF-CEM leukemia
  TGI: > 100 µM
RXF-631 renal
  TGI: > 100 µM
HOP-92 NSCLC
  TGI: 69.6 µM
HCT-116 colon
  TGI: > 100 µM
UACC-62 melanoma
  TGI: 93.9 µM
SW-620 colon
  TGI: > 100 µM

## O=[N+]([O-])c1ccc2nc3ccscc-3c2c1
SF-295 CNS
  TGI: > 100 µM
A549 NSCLC
  TGI: 89.9 µM
KM20L2 colon
  TGI: 94.9 µM
SK-MEL-5 melanoma
  TGI: 33.1 µM
KM12 colon
  TGI: 83.6 µM
EKVX NSCLC
  TGI: > 100 µM
LXFL 529 NSCLC
  TGI: 27.3 µM
HOP-62 NSCLC
  TGI: 69.4 µM
HL-60(TB) leukemia
  TGI: 30.4 µM
DMS 114 small cell lung
  TGI: 39.6 µM
DMS 273 small cell lung
  TGI: > 100 µM
M19-MEL melanoma
  TGI: 61.8 µM
SF-539 CNS
  TGI: 50.4 µM
MALME-3M melanoma
  TGI: > 100 µM
RPMI-8226 leukemia
  TGI: 44.1 µM
SK-MEL-28 melanoma
  TGI: > 100 µM
HCC-2998 colon
  TGI: 34.1 µM
IGROV1 ovarian
  TGI: > 100 µM
UO-31 renal
  TGI: > 100 µM
COLO 205 colon
  TGI: 34.8 µM
SNB-19 CNS
  TGI: > 100 µM
SK-MEL-2 melanoma
  TGI: 77.7 µM
DLD-1 colon
  TGI: > 100 µM
K-562 leukemia
  TGI: > 100 µM
CAKI-1 renal
  TGI: 26.2 µM
NCI-H460 lung
  TGI: 49.4 µM
UACC-257 melanoma
  TGI: > 100 µM
OVCAR-4 ovarian
  TGI: 31.4 µM
SNB-78 CNS
  TGI: 90 µM
LOX IMVI melanoma
  TGI: 85.9 µM
M14 melanoma
  TGI: 32.4 µM
SK-OV-3 ovarian
  TGI: 86.3 µM
XF 498 CNS
  TGI: 87.2 µM
786-0 renal
  TGI: > 100 µM
TK-10 renal
  TGI: > 100 µM
U251 CNS
  TGI: 85.3 µM
NCI-H522 lung
  TGI: 59.9 µM
HCT-15 colon
  TGI: > 100 µM
OVCAR-3 ovarian
  TGI: > 100 µM
HT29 colon
  TGI: > 100 µM
A498 renal
  TGI: 53.3 µM
HOP-18 NSCLC
  TGI: > 100 µM
OVCAR-5 ovarian
  TGI: > 100 µM
SF-268 CNS
  TGI: > 100 µM
NCI-H23 lung
  TGI: 70.2 µM
MOLT-4 leukemia
  TGI: > 100 µM
NCI-H226 lung
  TGI: > 100 µM
ACHN renal
  TGI: > 100 µM
CCRF-CEM leukemia
  TGI: > 100 µM
RXF-631 renal
  TGI: > 100 µM
HOP-92 NSCLC
  TGI: 25.7 µM
UACC-62 melanoma
  TGI: 65.6 µM
SW-620 colon
  TGI: > 100 µM

## CC(=O)OCC1OC(n2c(=S)n(-c3ccccc3)c(=S)c3ccccc32)C(OC(C)=O)C(OC(C)=O)C1OC(C)=O (centres undefined)
LXFL 529 NSCLC
  GI50: 62.3 µM and 8.58 µM
  TGI: > 100 µM
SF-539 CNS
  TGI: > 100 µM
UO-31 renal
  TGI: > 100 µM
SK-MEL-2 melanoma
  GI50: 78.6 µM and > 35.8 µM
  TGI: > 100 µM
CAKI-1 renal
  GI50: 50.7 µM and 20 µM
  TGI: > 100 µM
SNB-75 CNS
  TGI: > 100 µM
LOX IMVI melanoma
  GI50: 60.4 µM and 19.7 µM
  TGI: > 100 µM
M14 melanoma
  TGI: > 100 µM
XF 498 CNS
  GI50: 28.3 µM and 4.4 µM
  TGI: > 100 µM
786-0 renal
  TGI: > 100 µM
TK-10 renal
  TGI: > 100 µM
HOP-18 NSCLC
  TGI: > 100 µM
SF-268 CNS
  GI50: 77.9 µM and 9.64 µM
  TGI: > 100 µM
RXF 393 renal
  GI50: 38.4 µM and 4.04 µM
  TGI: > 100 µM
RXF-631 renal
  TGI: > 100 µM
HOP-92 NSCLC
  TGI: > 100 µM
HCT-116 colon
  TGI: > 100 µM
